Values joined by “and” are separate entries in the source; they are usually repeats but may differ in a detail not shown here. Equal values may be shown once. Read-outs that look alike come from different tables or passages of the source.

We go through one molecule from patent US20260041653A1, “AN HDAC INHIBITOR FOR TREATING CANCER WITH A MODIFIED STK11 ACTIVITY OR EXPRESSION” (Tango Therapeutics, Inc., priority 2022, published 2026).

One series can be described thus: Pharmacokinetics in rats. In kind it is in vivo, Sprague Dawley rats. Conditions: rat, plasma. How it is done:
The pharmacokinetics (PK) of Compound I in rats was determined following single IV bolus of 1 mg/kg in 20% wt/vol HPβCD, 1% vol/vol DMSO in saline or single PO dose of 3 mg/kg in 0.5% methylcellulose (MC) in water to male Sprague Dawley rats (fed for IV, fasted for PO). Plasma samples were collected from 3 animals/group at 0.05, 0.25, 0.5, 1, 2, 3, 4 8, and 24 hours after dosing.

For the next series, the target named is T1, hERG potassium channel (Homo sapiens, UniProt Q12809).
T1 construct: expressed in transfected cells
T1 sequence (Q12809 whole entry): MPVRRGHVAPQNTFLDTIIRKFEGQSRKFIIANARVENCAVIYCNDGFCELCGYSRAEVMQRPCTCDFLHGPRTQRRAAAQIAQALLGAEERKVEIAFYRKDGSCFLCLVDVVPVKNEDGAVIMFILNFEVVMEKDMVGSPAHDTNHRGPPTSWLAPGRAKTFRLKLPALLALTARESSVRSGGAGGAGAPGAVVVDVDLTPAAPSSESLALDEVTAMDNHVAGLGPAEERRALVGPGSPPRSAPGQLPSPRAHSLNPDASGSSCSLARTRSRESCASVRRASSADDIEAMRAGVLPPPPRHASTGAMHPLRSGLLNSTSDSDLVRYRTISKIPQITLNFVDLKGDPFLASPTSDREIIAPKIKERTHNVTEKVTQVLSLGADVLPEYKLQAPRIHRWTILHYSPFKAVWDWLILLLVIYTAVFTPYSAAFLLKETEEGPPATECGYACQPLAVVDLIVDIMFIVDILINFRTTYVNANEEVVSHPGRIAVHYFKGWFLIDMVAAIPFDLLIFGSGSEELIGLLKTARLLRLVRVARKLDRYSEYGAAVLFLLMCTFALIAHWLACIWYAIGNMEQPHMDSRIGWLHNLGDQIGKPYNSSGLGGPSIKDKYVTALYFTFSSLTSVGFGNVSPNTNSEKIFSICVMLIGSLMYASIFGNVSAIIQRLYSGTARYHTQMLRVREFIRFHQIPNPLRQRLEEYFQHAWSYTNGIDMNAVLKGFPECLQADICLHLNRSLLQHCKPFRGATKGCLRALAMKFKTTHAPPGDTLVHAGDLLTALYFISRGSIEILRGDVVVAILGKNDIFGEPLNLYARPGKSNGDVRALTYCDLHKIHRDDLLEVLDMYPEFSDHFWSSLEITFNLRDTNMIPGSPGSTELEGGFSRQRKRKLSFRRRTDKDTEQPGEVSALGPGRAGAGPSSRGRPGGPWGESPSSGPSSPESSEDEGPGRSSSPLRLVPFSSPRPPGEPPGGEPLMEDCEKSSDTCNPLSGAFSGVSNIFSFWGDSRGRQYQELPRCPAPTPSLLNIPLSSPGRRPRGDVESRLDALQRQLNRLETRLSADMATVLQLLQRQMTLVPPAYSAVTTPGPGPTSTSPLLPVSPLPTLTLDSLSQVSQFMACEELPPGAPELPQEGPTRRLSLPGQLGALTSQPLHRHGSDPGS
Put plainly: hERG manual patch-clamp in HEK 293 cells. In kind it is cell-based. How it is done: The effects of Compound I on a cloned human ether-à-go-go-related gene (hERG) potassium channels stably expressed in human embryonic kidney (HEK) 293 cells were measured using manual patch-clamp technique. Briefly, Compound I was soluble at 100 uM in 0.3% DMSO, pH 6.9. A does range-finding (DRF) assay was performed with Compound I at 3. 30, and 100 uM concentrations.

In a further series the target is T2, HDAC1 (Homo sapiens, UniProt Q13547).
T2 construct: expressed in transfected cells
T2 sequence (Q13547 whole entry): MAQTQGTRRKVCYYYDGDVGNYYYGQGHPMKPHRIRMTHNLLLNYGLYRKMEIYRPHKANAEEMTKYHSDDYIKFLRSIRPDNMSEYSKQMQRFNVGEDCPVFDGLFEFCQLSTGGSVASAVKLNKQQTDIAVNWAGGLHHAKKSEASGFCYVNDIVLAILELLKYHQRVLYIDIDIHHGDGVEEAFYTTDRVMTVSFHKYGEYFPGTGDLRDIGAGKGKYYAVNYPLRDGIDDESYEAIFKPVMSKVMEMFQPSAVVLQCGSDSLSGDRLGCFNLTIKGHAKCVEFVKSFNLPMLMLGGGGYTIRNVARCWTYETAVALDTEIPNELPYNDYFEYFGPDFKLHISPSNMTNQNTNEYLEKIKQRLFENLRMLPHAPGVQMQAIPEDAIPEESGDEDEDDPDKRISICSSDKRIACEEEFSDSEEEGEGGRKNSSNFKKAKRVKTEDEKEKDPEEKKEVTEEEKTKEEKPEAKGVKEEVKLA
Put plainly: Cellular NanoBRET target engagement assay, HDAC1. Type of series: cell-based. Conditions: in intact cells. For orientation: BRET reads energy transfer from a luciferase to a nearby fluorophore.

The nature of series [1]: Pharmacokinetics in beagle dogs. In kind it is in vivo. The protocol:
The PK of Compound I in beagle dogs was determined in plasma following single IV bolus and PO administration to non-naïve male and female beagle dogs. The vehicle used for IV was 20% wt/vol 2-hydroxypropyl β cyclodextrin (HPβCD), 1% vol/vol DMSO in saline, and PO was in 5% DMA, 30% PEG400 and 65% (30% HPβCD in water) (solution) or 0.5% MC (suspension). Plasma samples were collected from 3 animals/group at 0.083, 0.25, 0.5, 1, 3, 6, 9, 12, 24 and 48 hours after dosing.

Another series deals with acetyl-histone H2B. Put plainly: PK/PD study, acetyl-histone H2B in PBMC by flow cytometry. Type of series: in vivo, C57BL/6 mice. To be noted: 300 mg/kg QD, 2 days; 24 hours after last dose; vs vehicle control. How it is done:
In a separate PK/PD study, MC38 tumor-bearing female C57BL/6 mice (12/group) were assigned to treatment groups with similar mean tumor volumes of approximately 430 mm^3 and treated with vehicle (5% N,N-dimethylacetamide [DMA]+30% polyethylene glycol [PEG] 400+65% of 30% 2-hydroxypropyl-beta-cyclodextrin [HP-β-CD] in water) or Compound I at 30, 100, and 300 mg/kg once daily (QD) for 2 days. Plasma samples were collected at 1, 2, 8 and 24 hours after last dose and analyzed for Compound I concentrations. Peripheral blood mononuclear cells (PBMC) and tumor samples were harvested at 2, 8, and 24 hours after last dose. The PBMC samples were processed for determination of mean florescent level of acetyl-histone H2B by flow cytometry. Tumor samples were processed for determination of protein levels of acetyl-histone H3 by Western blot.
For orientation: A flow cytometer gives signals particle by particle.

Another series has as its target CYP2B6 (Homo sapiens, UniProt P20813). Put plainly: Metabolism by recombinant human CYP2B6. In kind it is in vitro ADME. Conditions: read-out: terminal half life (T1/2), rh CYP2B6. How it is done: (§1) Drug metabolizing enzymes involved in the biotransformation of Compound I were investigated using human liver microsomes (HLM) and recombinant enzymes. Compound I was stable in HLMs (>93% remaining after 240 minutes of incubation with HLM protein concentration at 0.6 mg/ml). CYP selective inhibitor experiments were not performed due to lack of appreciable Compound I turnover.

A further series concerns the target CYP2C19 (Homo sapiens, UniProt P33261). Put plainly: Metabolism by recombinant human CYP2C19. Type of series: in vitro ADME. To be noted: read-out: terminal half life (T1/2), rh CYP2C19. How it is done:
as §1

Another series has as its target T3, HDAC10 (Homo sapiens, UniProt Q969S8).
T3 construct: expressed in transfected cells
Put plainly: Cellular NanoBRET assay, HDAC10. Type of series: cell-based.

In series [2] the test system is CT26 parental tumor (KRAS G12D). Put plainly: Anti-tumor efficacy in CT26 parental (wild-type) colon carcinoma model. Type of series: in vivo, mouse. The protocol:
An in vivo anti-tumor efficacy of combination treatment of Anti-PD1 and Compound I in a CT26 mouse model was evaluated. CT26 is a colon carcinoma cell line with an endogenous KRAS G12D mutation. The experiment was performed in the parental/wild type line and in a line engineered with an STK11 knock-out (CT26_STK11KO) resulting in an anti-PD1 resistant model with lower CD8+ T cell infiltration.
In each of the experiments, the animals (8/group) were divided into four groups. Group I was treated with a control antibody Anti-IgG2, group 2 was treated with Compound I 75 mg/kg, group 3 was treated with anti-PD1 antibody, and group 4 was treated with Compound I 75 mg/kg and anti-PD1 antibody. Tumor volume and survival was monitored over the course of treatment. For the CT26_STK11KO model, the tumor volume was plotted by individual animal (FIG. 15A) and by treatment group (FIG. 15B). Survival was plotted by treatment group (FIG. 15C).
For the CT26 parental model, the tumor volume was plotted by treatment group (FIG. 15D) and by individual animal for groups 1 and 4 (FIG. 15E).
An in vivo anti-tumor efficacy of combination treatment of anti-CTLA4 and Compound I in a CT26 mouse model was evaluated. CT26 is a colon carcinoma cell line with an endogenous KRAS G12D mutation. The experiment was performed in the parental/wild type line and in a line engineered with an STK11 knock-out (CT26_STK11KO) resulting in an anti-CTLA4-resistant model.
An in vivo anti-tumor efficacy of double combination treatment of Anti-CTLA4 and Compound I in a CT26 syngeneic model was performed. CT26 is a colon carcinoma cell line. The experiment was also performed with an STK11-null CT26 model, this model is CTLA4 resistant.
There were 8 mice per group. Group I was treated with a control antibody Anti-IgG2, group 2 was treated with Compound I 75 mg/kg, group 3 was treated with anti-CTLA4 antibody, and group 4 was treated with Compound I 75 mg/kg and anti-CTLA4 antibody. Tumor volume was monitored over the course of treatment. The tumor volume was plotted by treatment group (FIG. 16A), and the individual animals were plotted for group 1 and group 4 (FIG. 16B), for the parental model. The tumor volume was plotted by treatment group (FIG. 16C), and the individual animals were plotted for group 1 and group 4 (FIG. 16D), for the STK11 knockout model.

The mark [3] stands for this setting: Compound I 75 mg/kg QD alone, second of two values (two experiments, Examples 14 and 15).
Where [4] appears, read: Compound I 75 mg/kg QD, antibodies 10 mg/kg, for Compound I alone the first of two printed values.

T3 sequence (Q969S8 whole entry): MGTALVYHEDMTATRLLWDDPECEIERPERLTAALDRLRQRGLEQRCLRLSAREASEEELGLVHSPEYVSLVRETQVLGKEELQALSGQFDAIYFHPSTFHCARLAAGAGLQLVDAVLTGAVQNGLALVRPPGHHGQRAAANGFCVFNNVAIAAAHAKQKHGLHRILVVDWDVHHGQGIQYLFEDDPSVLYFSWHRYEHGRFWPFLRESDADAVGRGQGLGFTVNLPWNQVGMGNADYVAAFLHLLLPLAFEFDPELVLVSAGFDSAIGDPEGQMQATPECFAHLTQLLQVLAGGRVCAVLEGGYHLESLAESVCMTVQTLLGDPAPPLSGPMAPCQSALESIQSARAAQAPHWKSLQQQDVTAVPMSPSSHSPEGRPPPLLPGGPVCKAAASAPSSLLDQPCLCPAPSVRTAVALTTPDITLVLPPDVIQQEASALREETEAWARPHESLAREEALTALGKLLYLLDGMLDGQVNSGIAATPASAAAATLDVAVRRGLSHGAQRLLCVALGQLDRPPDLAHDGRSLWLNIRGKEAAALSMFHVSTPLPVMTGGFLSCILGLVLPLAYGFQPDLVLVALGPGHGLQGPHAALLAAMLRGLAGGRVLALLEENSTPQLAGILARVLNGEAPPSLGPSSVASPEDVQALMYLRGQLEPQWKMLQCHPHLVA
Chain of CYP2B6 (P20813 whole entry): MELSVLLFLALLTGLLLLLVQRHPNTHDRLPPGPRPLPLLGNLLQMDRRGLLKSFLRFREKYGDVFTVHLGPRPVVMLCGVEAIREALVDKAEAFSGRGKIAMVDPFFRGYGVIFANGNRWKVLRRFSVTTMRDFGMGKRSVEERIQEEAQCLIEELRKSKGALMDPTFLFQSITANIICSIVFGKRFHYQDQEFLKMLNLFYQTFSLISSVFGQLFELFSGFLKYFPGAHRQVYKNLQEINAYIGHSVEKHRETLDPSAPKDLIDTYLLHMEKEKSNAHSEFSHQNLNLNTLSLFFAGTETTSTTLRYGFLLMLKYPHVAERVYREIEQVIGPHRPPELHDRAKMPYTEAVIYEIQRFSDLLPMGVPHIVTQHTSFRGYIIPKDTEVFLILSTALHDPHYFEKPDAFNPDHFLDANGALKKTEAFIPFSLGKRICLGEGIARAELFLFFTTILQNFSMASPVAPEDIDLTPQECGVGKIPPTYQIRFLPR
Chain of CYP2C19 (P33261 whole entry): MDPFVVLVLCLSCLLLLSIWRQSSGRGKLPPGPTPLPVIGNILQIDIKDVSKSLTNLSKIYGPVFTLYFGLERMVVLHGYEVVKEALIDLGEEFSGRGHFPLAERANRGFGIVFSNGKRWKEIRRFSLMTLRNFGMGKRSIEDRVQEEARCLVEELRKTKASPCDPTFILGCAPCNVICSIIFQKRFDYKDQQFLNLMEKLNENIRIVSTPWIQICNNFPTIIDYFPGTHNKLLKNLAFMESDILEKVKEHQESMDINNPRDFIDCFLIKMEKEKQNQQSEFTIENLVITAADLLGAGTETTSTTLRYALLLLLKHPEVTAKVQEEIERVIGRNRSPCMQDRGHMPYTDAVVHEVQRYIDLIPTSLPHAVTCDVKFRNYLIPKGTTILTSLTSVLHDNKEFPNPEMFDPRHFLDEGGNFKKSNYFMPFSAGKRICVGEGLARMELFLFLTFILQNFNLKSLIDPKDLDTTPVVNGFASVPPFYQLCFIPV

For `C[S@@](=N)(=O)c1ccc(C(=O)Nc2cc(-c3ccc(F)cc3)ccc2N)cc1` [Compound I, (R)—N-(4-amino-4′-fluoro-[1,1′-biphenyl]-3-yl)-4-(S-methylsulfonimidoyl)benzamide], the half-life in the series “Pharmacokinetics in rats” (male, Sprague Dawley) was 4.8 h; in series [1] (both sexes, beagle, dog, plasma), 8.4 h; on CYP2B6, above 1 h; at CYP2C19, above 1 h. For the same molecule, the clearance in the series “Pharmacokinetics in rats” (male, Sprague Dawley, intravenous, 1 mg/kg, read-out: CL, p) stood at 7.7 mL/min/kg; in [1] (both sexes, beagle, dog, plasma, intravenous, read-out: CL, p), 9.6 mL/min/kg. Also, the bioavailability (commonly the share of a dose that reaches the circulation, judged against a reference dose that is usually intravenous) in the series “Pharmacokinetics in rats” (male Sprague Dawley rats, PO 3 mg/kg in 0.5% MC, fasted, IV 1 mg/kg, read-out: PO bioavailability (% F)) is 95.4% and 95%; in [1] (both sexes, beagle, dog, plasma, po, 3 mg/kg, beagle dogs, solution at 3 mg/kg, fasted, read-out: PO bioavailability (% F)), 67.4%. The IC50 – broadly, the concentration needed to halve the response being measured – on hERG potassium channel (Table 5, read-out: hERG IC50) was above 30 µM; on hERG potassium channel (definitive hERG assay, replicates of 3, read-out: hERG potassium current IC50), 71.1 µM; on HDAC10 it was above 30 µM. Moreover, the inhibition (usually the share of the control response that was lost under treatment) at 3 µM at hERG potassium channel (human, HEK 293 cells stably expressing hERG, 3 uM, dose range-finding assay, read-out: inhibition of hERG currents) came to 15.7%. Moreover, the inhibition at 30 µM at hERG potassium channel (human, HEK 293 cells stably expressing hERG, 30 uM, dose range-finding assay, read-out: inhibition of hERG currents) came to 45.9%. Besides, the inhibition at 100 µM at hERG potassium channel (human, HEK 293 cells stably expressing hERG, 100 uM, dose range-finding assay, read-out: inhibition of hERG currents) came to 73.6%. In addition, the “selectivity for HDAC1 compared to HDAC3” value on HDAC1 is recorded as above 10 fold. Also, in [1] (beagle dogs, solution at 3 mg/kg, fasted, 3 mg/kg), the “PO bioavailability (% F)” value came to 67%. The “maximal induction of histone acetylation in PBMC” value with acetyl-histone H2B amounted to 8 fold. Moreover, the ORR % in [2] (setting [3]) and in series [2] (setting [4]) was 63/63% each time. Besides, the TGI % in series [2] (setting [3]) was 66%; in [2] (setting [4]) it was 84%.
